The source of these data is article PMC9705864, “SCO6992, a Protein with β-Glucuronidase Activity, Complements a Mutation at the absR Locus and Promotes Antibiotic Biosynthesis in Streptomyces coelicolor” (Journal of Microbiology and Biotechnology, 2021).

Experiment [1] addresses T1, MBP-SCO6992 (rSCO6992; ORF-1; absR1) (Streptomyces coelicolor, UniProt Q7AKD9).
T1 construct: N-terminal MBP fusion (pMAL-c2x) kept, about 82 kDa; E. coli JM109
T1 sequence (Q7AKD9 1-359): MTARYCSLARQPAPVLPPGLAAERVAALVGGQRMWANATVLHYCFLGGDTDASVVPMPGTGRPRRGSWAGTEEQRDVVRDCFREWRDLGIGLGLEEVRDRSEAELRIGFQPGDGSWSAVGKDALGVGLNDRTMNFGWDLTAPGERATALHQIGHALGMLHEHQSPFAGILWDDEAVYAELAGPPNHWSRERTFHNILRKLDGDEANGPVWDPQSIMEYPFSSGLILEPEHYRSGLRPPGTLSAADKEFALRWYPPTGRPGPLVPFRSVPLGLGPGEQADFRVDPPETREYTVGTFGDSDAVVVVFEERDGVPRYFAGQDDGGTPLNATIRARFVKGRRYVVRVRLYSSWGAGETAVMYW
Briefly: native PAGE zymogram with Fast Garnet. The conditions noted are these: 0.2 M sodium acetate pH 5.2. It counts as biochemical.

Experiment [2] deals with T1, MBP-SCO6992 (rSCO6992; ORF-1; absR1). The experiment can be described thus: p-nitrophenol release, absorbance at […] nm. Particulars: 1.67 mM substrate, 83 mM acetate pH 4.5, 37°C, 1 h; without added Zn2+. It counts as biochemical.

In the case of `COc1ccccc1NC(=O)c1cc2cc(Br)ccc2cc1O[C@@H]1O[C@H](C(=O)O)[C@@H](O)[C@H](O)[C@H]1O` [naphthol AS-BI-β-D-glucuronide], the “native PAGE zymogram with Fast Garnet” value in experiment [1] is “purified MBP-SCO6992 protein had β-glucuronidase activity on an artificial substrate such as AS-BI-β-D-glucuronide”.

As to `O=C(O)[C@H]1O[C@@H](Oc2ccc([N+](=O)[O-])cc2)[C@H](O)[C@@H](O)[C@@H]1O` [p-nitrophenyl-β-D-glucuronide], in experiment [2], the “p-nitrophenol release, absorbance at 415 nm” value is “when measuring β-glucuronidase activity using p-nitrophenyl-β-D-glucuronide as substrate, a strong activity was detected”.
